Source: patent US20220268782A1, “METHODS FOR PREDICTING AND TREATING CARDIAC DYSFUNCTION” (INSERM (INSTITUT NATIONAL DE LA SANTÉ EAT DE LA RECHERCHE …, priority 2019, published 2022)

What was measured:
[1] = test system: Myocardial nitric oxide synthase (NOS); test: Myocardial nitric oxide synthase activity in hearts of BH4-treated mice; assay type: in vivo; settings: hearts of 12.5-month-old WT mice treated with BH4 or vehicle, FIG. 4i
Description: Myocardial nitric oxide synthase (NOS) activity was determined in hearts of 12.5-month-old WT mice treated with BH4 or vehicle using a commercial kit (Biovision). Briefly, pulverized heart aliquots were processed according to the manufacturer's instructions and fluorometric readouts (excitation: 360, emission: 450) were normalised to protein concentration determined by Bradford assay. Activity of recombinant NOS protein served as positive control.

[2] = test system: 11 month-old WT mice; test: In vivo intraperitoneal BH4 treatment of 11-month-old WT mice: cardiac phenotyping, plasma and hepatic PA
Description: PA in a dose of 200 mg/kg twice a day or vehicle (1×PBS) was subcutaneously administered to 11 month-old WT mice (Janvier Labs, France) in vivo for a month. BH4 in a dose of 10 mg/kg/die 2×/die or vehicle (1×PBS with 10 mM sodium ascorbate and citric acid to pH 4.5) was intraperitoneally administered to 11 month-old WT mice in vivo over six weeks. General state of the mice (body weight & wellbeing) was closely monitored.
(§1) Data acquisition for a single cohort was performed by a single operator (JT or ER). Images were acquired from a parasternal position at the level of the papillary muscles using a 13-MHz linear-array transducer with a digital ultrasound system (Vivid 7, GE Medical System, Horton, Norway). Left ventricular dimensions and ejection fraction, anterior and posterior wall thicknesses were serially obtained from M-mode acquisition. Relative LV wall thickness (RWT) was defined as the sum of septal and posterior wall thickness over LV end-diastolic diameter, and LV mass was determined using the uncorrected cube assumption formula (LV mass=(AWTd+LVEDD+PWTd)^3−(LVEDD)^3). Peak systolic values of radial strain rate of the anterior and posterior wall were obtained using Tissue Doppler Imaging (TDI) as previously described.^2 TDI loops were acquired from parasternal view with a careful alignment with the radial component of the deformation' at a mean frame rate of 514 fps and a depth of 1 cm. The Nyquist velocity limit was set at 12 cm/s. Radial strain rate analysis was performed offline using the EchoPac Software (GE Medical Systems) blindly by a single operator (GD). Peak systolic of radial strain rate was computed from a region of interest positioned in the mid anterior wall and was measured over an axial distance of 0.6 mm. The temporal smoothing filters were turned off for all measurements. Because of the inevitable respiratory variability, we averaged peak systolic of radial strain rate on 8 consecutive cardiac cycles.
(§2) In vivo haemodynamic measurements were performed just before mice of indicated ages were sacrificed.' Haemodynamic evaluation was performed in mice placed on a homeothermic operating table in supine position under 1.5% isoflurane anesthesia with spontaneous breathing. A 1.4-Fr microcatheter (Millar Instruments, Houston, USA) was calibrated manually before each experiment, inserted via the right carotid artery into the aorta and subsequently advanced to the left ventricle. Data were collected after at least 10 min of baseline, using the lowest isoflurane concentration tolerated to ensure minimal cardiodepression during measurement of peak rates of isovolumetric pressure development (dP/dtmax) and pressure decay (dP/dtmin). The microcatheter was then withdrawn to the aorta for measurement of systolic and diastolic pressure. Data were analyzed using the IOX software (EMKA, France).
(§3) All mice were weighed, euthanized by cervical dislocation, followed by rapid excision of the organs of interest. The heart was cannulated through the aorta for perfusion with ice-cold 1×PBS, then blotted and weighed. The heart was cut in half perpendicular to its axis: the apical two-third was snap-frozen in liquid nitrogen, whilst the basic one-third was recannulated through the aorta, perfused with 10% formalin for histology. Hearts were kept in formalin at 4° C. for at least 24-48 hours before embedding. Snap-frozen tissues were kept at −80° C., until they were powdered using a mortar and pestle cooled with liquid nitrogen and collected as aliquots. Livers and kidneys were processed in a similar manner.
Formalin-fixed organs were embedded in paraffin. Cross-sections were cut into 7 μm thickness using a rotary microtome (Leica). To assess cardiac fibrosis, Sirius red staining was performed, followed by dehydration and mounting with Eukitt quick-hardening mounting medium (Sigma). […]

[3] = test system: WT mice; test: In vivo subcutaneous PA treatment of WT mice: cardiac phenotyping
Description: […] […] General state of the mice (body weight & wellbeing) was closely monitored.
as §1, §2, §3
Formalin-fixed organs were embedded in paraffin. Cross-sections were cut into 7 μm thickness using a rotary microtome (Leica). To assess cardiac fibrosis, Sirius red staining was performed, followed by dehydration and mounting with Eukitt quick-hardening mounting medium (Sigma). To visualise cardiomyocyte hypertrophy, sections were incubated in 2 μg/mL Texas red-conjugated wheat germ agglutinin (WGA; Invitrogen) in 1×PBS at room temperature for 45 minutes. Slides were then mounted with fluorescent mounting media (Abcam). Images were acquired using a Zeiss fluorescent microscope. Whole-mount preparations were made of hearts and livers of 2- and 15-month-old p21-mCherry reporter mice. […]

[4] = older group (11 month-old at start), PA 200 mg/kg twice a day, one month

**Q.** For `CC(O)C(O)C1CNc2nc(N)[nH]c(=O)c2N1` (stereo not drawn) [BH4, 2-amino-6-(1,2-dihydroxypropyl)-5,6,7,8-tetrahydro-3H-pteridin-4-one], which “myocardial nitric oxide synthase activity” value [1] is on record?
**A.** without altering

**Q.** What about the “plasma PA” value ([2]; 11-month-old WT mice, BH4 10 mg/kg i.p. twice a day over 6 weeks, FIG. 4a) of the same compound?
**A.** reduce plasma PA to young levels

**Q.** And the systemic arterial pressures ([2]; 11-month-old WT mice, BH4 10 mg/kg i.p. twice a day over 6 weeks, FIG. 4f)?
**A.** without lowering

**Q.** And the “interstitial fibrosis (Sirius red, vimentin)” value ([2]; 11-month-old WT mice, BH4 10 mg/kg i.p. twice a day over 6 weeks, FIG. 4g-h)?
**A.** normalised

**Q.** And the “senescent myocardial expression of p21, Pah, Gch1 & 2-SC” value ([2]; 11-month-old WT mice, BH4 10 mg/kg i.p. twice a day over 6 weeks, FIG. 4j)?
**A.** suppressing

**Q.** What about the “HW/TL (heart weight to tibia length)” value ([2]; 11-month-old WT mice, BH4 10 mg/kg i.p. twice a day over 6 weeks, to young values, FIG. 4b) of the same compound?
**A.** ameliorated

**Q.** And the “contractility (systolic strain rate, dP/dtmax)” value ([2]; 11-month-old WT mice, BH4 10 mg/kg i.p. twice a day over 6 weeks, to young values, FIG. 4c-d)?
**A.** ameliorated

**Q.** And the “relaxation (dP/dtmin)” value ([2]; 11-month-old WT mice, BH4 10 mg/kg i.p. twice a day over 6 weeks, to young values, FIG. 4e)?
**A.** ameliorated

**Q.** What about the “Pah in liver (immunofluorescence)” value ([2]; 12.5-month-old WT mice, BH4 vs. vehicle, FIG. 4s) of the same compound?
**A.** re-expressed

**Q.** And the “hepatic PA content” value ([2]; 12.5-month-old WT mice, BH4 vs. vehicle, FIG. 4t)?
**A.** reduced

**Q.** And the “course of drug treatment (body weight & wellbeing monitored)” value ([2]; BH4 10 mg/kg twice a day intraperitoneally over six weeks)?
**A.** completed as scheduled without incidents

**Q.** What about the “hepatic Pah activity” value ([2]; BH4-treated WT mice, data not shown) of the same compound?
**A.** improved

**Q.** With `N[C@@H](Cc1ccccc1)C(=O)O` [PA, (S)-2-Amino-3-phenylpropanoic acid] as the compound, how does the “course of drug treatment (body weight & wellbeing monitored)” value ([3]; PA 200 mg/kg twice a day subcutaneously for a month) read?
**A.** completed as scheduled without incidents

**Q.** And the LV ejection fraction ([3]; PA 200 mg/kg twice a day, one month, FIG. 3h)?
**A.** unaltered

**Q.** What about the “Plasma PA levels” value ([3]; WT mice 5 vs. 11 month-old at start, PA 200 mg/kg twice a day over one month) of the same compound?
**A.** increased in both age-groups, but were considerably higher in older animals

**Q.** What about the “tolerability / weight loss” value ([3]; WT mice, PA 200 mg/kg twice a day over one month, data not shown) of the same compound?
**A.** tolerated PA treatment well without significant weight loss

**Q.** And the “hepatic PA levels” value ([3]; livers of PA-treated 6-month-old WT mice vs. 12-month-old WT mice, FIG. 4m)?
**A.** comparable

**Q.** What about the “cardiac hypertrophy (HW/TL)” value [3, 4] of the same compound?
**A.** no change

**Q.** And the “cardiomyocyte size (cross-sectional area)” value [3, 4]?
**A.** no change

**Q.** And the “myocardial interstitial fibrosis (Sirius red)” value [3, 4]?
**A.** no change

**Q.** What about the “cardiac hypertrophy (HW/TL)” value ([3]; young animals (5 month-old at start), PA 200 mg/kg twice a day, one month, FIG. 3c) of the same compound?
**A.** increase

**Q.** What about the “cardiomyocyte size (cross-sectional area)” value ([3]; young animals, PA 200 mg/kg twice a day, one month, FIG. 3e) of the same compound?
**A.** increase

**Q.** And the “myocardial interstitial fibrosis (Sirius red)” value ([3]; young animals, PA 200 mg/kg twice a day, one month, FIG. 3f)?
**A.** increase

**Q.** And the systolic strain rate ([3]; young group, PA 200 mg/kg twice a day, one month, FIG. 3i)?
**A.** reduced

**Q.** What about the dP/dtmax ([3]; young group, PA 200 mg/kg twice a day, one month, FIG. 3j) of the same compound?
**A.** reduced

**Q.** And the dP/dtmin ([3]; young group, PA 200 mg/kg twice a day, one month, FIG. 3k)?
**A.** reduced

**Q.** And the “myocardial senescence: p21, Pah, Gch1, 2-SC and 4-HNE” value ([3]; young hearts, PA 200 mg/kg twice a day, one month, FIG. 3l)?
**A.** upregulation
